# Data from patent US8455214B2, “Methods for determining chemotherapeutic agents targeting alpha-glucan pathways and uses thereof” (priority 2009, dated 2013).
# Read-outs that look alike come from different tables or passages of the source.
# Legend:
# [1] = test system: M. smegmatis ΔglgE mutant; test: Sensitivity of the M. smegmatis ΔglgE mutant toward mono- and disaccharides (growth on Middlebrook 7H10 agar); format: cell-based; conditions: for growth of the mutant: glucose disaccharides
# Text: FIG. 2A-2F. Characterization of the M. smegmatis ΔglgE mutant. […] (B). Trehalose sensitivity of the ΔglgE mutant. […] (D) Trehalose sensitivity of the ΔglgB mutant. (E) M1P accumulation in the ΔglgE and ΔglgB mutants determined by TLC/autoradiography analysis of extracts from cells labeled with 14C-trehalose for the indicated time intervals. (F) Maltose accumulation in Δpep2 mutant strains determined by TLC/autoradiography analysis of cell extracts from cells labeled with 14C-trehalose for 30 min. In (B) and (D), equal dilutions of cultures were spotted onto Middlebrook 7H10 agar plates containing trehalose. Comp. refers to mutants complemented with the respective WT genes.
# The sensitivity was highly specific, since growth of the mutant was not inhibited by other glucose disaccharides like maltose or α,β-trehalose [α-D-glucopyranosyl-(1→1)-β-D-glucopyranoside].
# [2] = test system: M. smegmatis ΔglgB mutant; format: cell-based; conditions: to a somewhat smaller extent than ΔglgE
# Mtb GlgE = Mtb GlgE (Mycobacterium tuberculosis, UniProt P9WQ17); format: biochemical; conditions: for Km: read-out: Km^app
# Sequence of Mtb GlgE (P9WQ17 whole entry): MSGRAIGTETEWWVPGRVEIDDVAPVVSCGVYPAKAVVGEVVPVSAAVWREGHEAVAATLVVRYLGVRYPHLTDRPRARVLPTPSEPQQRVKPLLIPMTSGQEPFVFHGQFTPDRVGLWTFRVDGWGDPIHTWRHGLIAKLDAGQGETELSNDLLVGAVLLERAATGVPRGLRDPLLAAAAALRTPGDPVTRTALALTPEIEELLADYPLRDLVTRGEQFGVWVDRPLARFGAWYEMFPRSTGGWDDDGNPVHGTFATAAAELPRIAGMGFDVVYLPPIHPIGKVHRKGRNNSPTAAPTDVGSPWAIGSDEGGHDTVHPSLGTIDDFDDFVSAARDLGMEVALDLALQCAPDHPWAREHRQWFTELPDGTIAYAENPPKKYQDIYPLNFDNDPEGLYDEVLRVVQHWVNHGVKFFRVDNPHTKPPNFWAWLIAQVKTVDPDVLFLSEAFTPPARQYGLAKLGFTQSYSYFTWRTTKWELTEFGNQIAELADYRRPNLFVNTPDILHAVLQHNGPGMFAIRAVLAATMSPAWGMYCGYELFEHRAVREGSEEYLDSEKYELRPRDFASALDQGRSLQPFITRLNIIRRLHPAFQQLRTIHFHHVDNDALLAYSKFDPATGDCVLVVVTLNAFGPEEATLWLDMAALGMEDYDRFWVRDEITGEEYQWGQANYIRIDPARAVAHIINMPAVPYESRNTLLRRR
# Mtb = conditions: reference 14; cited from earlier work
# Mtb WT = format: cell-based, Mycobacterium tuberculosis
# trehalose synthase TreS = conditions: reference 13; cited from earlier work
# [3] = test system: Mtb ΔtreS ΔglgE (pMV361::treS); format: cell-based, Mycobacterium tuberculosis; conditions: in the presence of 5 mM VA; TLC
# [4] = donor M1P with 1 mM maltohexaose
# [5] = acceptor maltohexaose with 1 mM M1P
molecule,measurement,setting,value
"OC[C@H]1O[C@H](O[C@H]2O[C@H](CO)[C@@H](O)[C@H](O)[C@H]2O)[C@H](O)[C@@H](O)[C@@H]1O [trehalose, α-D-glucopyranosyl-(1→1)-α-D-glucopyranoside]",concentration that completely inhibited growth,[1],0.5 mM
same,growth of the mutant,[1],bacteriostatic growth arrest
same,sensitivity of the mutant,[2],sensitive
OC[C@H]1O[C@H](O[C@H]2[C@H](O)[C@@H](O)C(O)O[C@@H]2CO)[C@H](O)[C@@H](O)[C@@H]1O (mixture of isomers) [maltose],growth of the mutant,[1],not inhibited
"O=P(O)(O)O[C@H]1O[C@H](CO)[C@@H](O[C@H]2O[C@H](CO)[C@@H](O)[C@H](O)[C@H]2O)[C@H](O)[C@H]1O [M1P, α-D-glucopyranosyl(1→4)-α-D-glucopyranosyl 1-phosphate]",kcat^app,Mtb GlgE; [4],1.26 ± 0.07 s⁻¹
same,Km,Mtb GlgE; [4],0.25 ± 0.05 mM
NNC(=O)c1ccncc1 [isoniazid],1 mg/l expressed as multiple of the MIC,Mtb,20 times the MIC
"OCC1=C[C@@H](N[C@H]2C[C@H](CO)[C@@H](O[C@H]3O[C@@H](CO)[C@H](O)[C@@H](O)[C@@H]3O)[C@H](O)[C@H]2O)[C@H](O)[C@@H](O)[C@@H]1O [VA, Validamycin A]",tolerated concentration of the inhibitor,Mtb WT,10 mM
same,inhibition of TreS,trehalose synthase TreS,inhibit
same,M1P accumulation,[3],only low levels
maltohexaose,kcat^app,Mtb GlgE; [5],7.5 ± 0.4 s⁻¹
same,Km,Mtb GlgE; [5],13.3 ± 2.4 mM
same,kcat^app,Mtb GlgE; acceptor maltohexaose with 5 mM M1P,15.4 ± 1.1 s⁻¹
same,Km,"Mtb GlgE; acceptor maltohexaose with 5 mM M1P, pH 7.0, 37° C",35 ± 8 mM
O=P(O)(O)O [inorganic phosphate],phosphate converted to M1P,Mtb GlgE,~10%
same,Km,"Mtb GlgE; inorganic phosphate, reverse reaction, estimated",6 ± 4 mM
O=P(O)(O)OC1OC(CO)C(OC2OC(CO)C(O)C(O)C2O)C(O)C1O (stereo not drawn) [β anomer of M1P],GlgE activity as donor,Mtb GlgE,no activity
"OC[C@H]1O[C@@H](O[C@H]2O[C@H](CO)[C@@H](O)[C@H](O)[C@H]2O)[C@H](O)[C@@H](O)[C@@H]1O [α,β-trehalose, α-D-glucopyranosyl-(1→1)-β-D-glucopyranoside]",growth of the mutant,[1],not inhibited
